{
  "source": "patent US20070060501A1",
  "about": "(priority 2005, published 2007)",
  "key": {"spinal alpha-2 receptors": {"test_system": "spinal alpha-2 receptors", "format": "in vivo, rat"}, "Sprague-Dawley rats [1]": {"test_system": "Sprague-Dawley rats", "test": "Effect on analgesia produced by a single spinal dose of morphine (tail flick and paw pressure tests)", "format": "in vivo, rat"}, "Sprague-Dawley rats [2]": {"test_system": "Sprague-Dawley rats", "test": "Acute tolerance to spinal morphine: three successive intrathecal injections at 90 minute intervals, cumulative morphine dose-response curves 24 hours later (tail flick and paw pressure tests)", "format": "in vivo, rat", "details": "for development of acute tolerance to morphine: ultra-low dose administration, intrathecal"}, "mice": {"test_system": "mice", "details": "cited from earlier work"}, "Sprague-Dawley rats [3]": {"test_system": "Sprague-Dawley rats", "test": "Reversal of pre-existing morphine analgesic tolerance by ultra-low dose atipemazole (tail flick and paw pressure tests)"}, "Sprague-Dawley rats [4]": {"test_system": "Sprague-Dawley rats", "test": "Chronic tolerance to spinal morphine: daily intrathecal injection for 5 days, cumulative dose-response curves on day 6 (tail flick and paw pressure tests)", "format": "in vivo, rat"}, "mouse": {"test_system": "mouse", "details": "in vivo; cited from earlier work"}, "[5]": {"details": "idazoxan 0.08 ng with morphine 15 μg intrathecal"}, "[6]": {"details": "idazoxan ultra-low doses (0.008, 0.016, 0.08 ng) with morphine 15 μg x 3"}, "[7]": {"details": "mirtazapine 2 μg with clonidine 13.3 μg intrathecal"}, "[8]": {"details": "mirtazapine 0.02 ng co-injection with morphine 15 μg x 3"}, "[9]": {"details": "mirtazapine 0.02 ng with morphine 15 μg x 3"}, "[10]": {"details": "single mirtazapine exposure 0.02 ng 30 minutes prior to repeated morphine"}, "[11]": {"details": "group receiving chronic morphine alone (15 μg for 10 days)"}, "[12]": {"details": "group receiving morphine (15 μg for 10 days) with atipemazole 0.8 ng from day 6 for 5 days"}, "[13]": {"details": "group receiving repeated morphine injections (15 μg x 3) vs saline-treated control"}, "[14]": {"details": "saline-treated control group, cumulative intrathecal dose-response curve 24 hours after treatment"}},
  "note": "Several values for one entry are separate records, joined by “and”; a condition that tells them apart may be missing. Equal values may be shown once. Entries after “also recorded” stand apart in the source; their conditions may differ. Read-outs that look alike come from different tables or passages of the source.",
  "data": [
    {"smiles": "Clc1cccc(Cl)c1N=C1NCCN1", "note": "[clonidine]", "values": [
      {"measurement": "analgesic response to clonidine, paw pressure test", "setting": "spinal alpha-2 receptors; rat, in vivo", "result": "lesser effect"},
      {"measurement": "analgesic response to clonidine, tail flick test", "setting": "spinal alpha-2 receptors; rat, in vivo", "result": "maximal analgesic response"}
    ]},
    {"smiles": "c1ccc2c(c1)OCC(C1=NCCN1)O2", "note": "(centres unmarked) [idazoxan]", "values": [
      {"measurement": "effect on peak clonidine analgesia, tail flick test", "setting": "spinal alpha-2 receptors; idazoxan 10 μg with clonidine 13.3 μg intrathecal", "result": "decreased significantly"},
      {"measurement": "effect on morphine analgesia, both tail flick and paw pressure tests", "setting": "Sprague-Dawley rats [1]; [5]", "result": "significantly extended morphine analgesia"},
      {"measurement": "effect on peak morphine analgesia, paw pressure test", "setting": "Sprague-Dawley rats [1]; [5]", "result": "augmented peak morphine analgesia"},
      {"measurement": "effect on the shift of the morphine dose-response curve, both tail flick and paw pressure tests", "setting": "Sprague-Dawley rats [2]; idazoxan 0.008 ng, 0.016 ng with morphine 15 μg x 3", "result": "prevented the rightward shift"},
      {"measurement": "effect on the increase in morphine ED50, both tail flick and paw pressure tests", "setting": "Sprague-Dawley rats [2]; idazoxan 0.008, 0.016 and 0.08 ng co-injection with morphine 15 μg x 3", "result": "prevented the increase in ED50"},
      {"measurement": "analgesic response to repeated administration alone", "setting": "Sprague-Dawley rats [2]; idazoxan alone at 0.008 and 0.016 ng, injected at 90 minute intervals", "result": "no significant analgesic response"},
      {"measurement": "effect on peak morphine analgesia, tail flick test", "setting": "Sprague-Dawley rats [2]; idazoxan lowest dose 0.008 ng with morphine 15 μg x 3", "result": "reduced the peak morphine analgesia"},
      {"measurement": "effect on the decline of morphine analgesia, paw pressure test", "setting": "Sprague-Dawley rats [2]; [6]", "result": "arrested the decline of the analgesic effect"},
      {"measurement": "effect on the decline of morphine analgesia, tail flick test", "setting": "Sprague-Dawley rats [2]; [6]", "result": "less effective at arresting the decline"},
      {"measurement": "development of acute tolerance to morphine", "setting": "Sprague-Dawley rats [2]", "result": "very effectively inhibit"}
    ]},
    {"smiles": "COCCc1ccc(OCC(O)CNC(C)C)cc1", "note": "(centres unmarked) [metoprolol]", "values": [
      {"measurement": "development of tolerance to morphine analgesia", "setting": "mice", "result": "suppress the development of tolerance"}
    ]},
    {"smiles": "CN1CCN2c3ncccc3Cc3ccccc3C2C1", "note": "(centres unmarked) [mirtazapine]", "values": [
      {"measurement": "effect on clonidine analgesia, paw pressure test", "setting": "spinal alpha-2 receptors; 10 μg with clonidine 13.3 μg intrathecal (FIG. 28B)", "result": "almost abolished"},
      {"measurement": "effect on clonidine analgesia, paw pressure test", "setting": "spinal alpha-2 receptors; [7]", "result": "almost abolished"},
      {"measurement": "effect on peak clonidine analgesia, tail flick test", "setting": "spinal alpha-2 receptors; [7]", "result": "decreased significantly"},
      {"measurement": "effect on peak morphine analgesia, tail flick test", "setting": "Sprague-Dawley rats [1]; mirtazapine 0.2 ng with morphine 15 μg intrathecal", "result": "reduced the peak morphine analgesia"},
      {"measurement": "effect on morphine analgesia, paw pressure test", "setting": "Sprague-Dawley rats [1]; mirtazapine 0.02 and 0.2 ng with morphine 15 μg intrathecal", "result": "significantly extended morphine analgesia"},
      {"measurement": "effect on duration of morphine analgesia, tail flick test", "setting": "Sprague-Dawley rats [1]; mirtazapine 0.02 and 0.2 ng with morphine 15 μg intrathecal, particularly at 0.02 ng", "result": "extended morphine analgesia"},
      {"measurement": "effect on the increase in morphine ED50, paw pressure test", "setting": "Sprague-Dawley rats [2]; [8]", "result": "completely prevented the increase in ED50"},
      {"measurement": "effect on the increase in morphine ED50, tail flick test", "setting": "Sprague-Dawley rats [2]; [8]", "result": "partially prevented the increase in ED50"},
      {"measurement": "effect on peak morphine analgesia, tail flick test", "setting": "Sprague-Dawley rats [2]; [9]", "result": "reduced the peak morphine analgesia"},
      {"measurement": "effect on the decline of morphine analgesia, paw pressure test", "setting": "Sprague-Dawley rats [2]; [9]", "result": "arrested the decline of the analgesic effect"},
      {"measurement": "effect on the decline of morphine analgesia, tail flick test", "setting": "Sprague-Dawley rats [2]; [9]", "result": "less effective at arresting the decline"},
      {"measurement": "effect on the shift of the morphine dose-response curve, paw pressure test", "setting": "Sprague-Dawley rats [2]; [9]", "result": "prevented the rightward shift"},
      {"measurement": "morphine dose-response curves of morphine and morphine-mirtazapine groups, tail flick test", "setting": "Sprague-Dawley rats [2]; [9]", "result": "showed an overlap at upper dose range of the opioid agonist"},
      {"measurement": "prevention of the right shift of the morphine dose response curve, paw pressure vs tail flick test", "setting": "Sprague-Dawley rats [2]; single mirtazapine dose 0.02 ng 30 minutes prior to morphine 15 μg x 3", "result": "more effective in the paw pressure test at preventing the right shift"},
      {"measurement": "effect on the increase in morphine ED50, paw pressure test", "setting": "Sprague-Dawley rats [2]; [10]", "result": "completely prevented the increase in ED50"},
      {"measurement": "effect on the increase in morphine ED50, tail flick test", "setting": "Sprague-Dawley rats [2]; [10]", "result": "partially prevented the increase in ED50"},
      {"measurement": "development of acute tolerance to morphine", "setting": "Sprague-Dawley rats [2]", "result": "very effectively inhibit"}
    ]},
    {"smiles": "CN1CC[C@]23c4c5ccc(O)c4O[C@H]2[C@@H](O)C=C[C@H]3[C@H]1C5", "note": "[morphine]", "values": [
      {"measurement": "morphine ED50, paw pressure test", "setting": "Sprague-Dawley rats [3]; [11]", "result": "~48", "unit": "µg"},
      {"measurement": "morphine ED50, tail flick test", "setting": "Sprague-Dawley rats [3]; [11]", "result": "~47", "unit": "µg"},
      {"measurement": "morphine ED50, paw pressure test", "setting": "Sprague-Dawley rats [3]; [12]", "result": "~8", "unit": "µg"},
      {"measurement": "morphine ED50, tail flick test", "setting": "Sprague-Dawley rats [3]; [12]", "result": "~6", "unit": "µg"},
      {"measurement": "acute morphine dose-response curve relative to morphine and atipemazole group", "setting": "Sprague-Dawley rats [3]; morphine 15 μg alone for 10 days, day 11", "result": "displaced to the right"},
      {"measurement": "time of peak analgesia after a single dose of morphine", "setting": "Sprague-Dawley rats [1]; morphine 15 μg intrathecal, tail flick and paw pressure tests", "result": 30, "unit": "min"},
      {"measurement": "increase in morphine ED50 values, both tests", "setting": "Sprague-Dawley rats [4]; chronic treatment with morphine 15 μg/day for 5 days", "result": "~8", "unit": "fold"},
      {"measurement": "ED50 values for morphine in the control group", "setting": "Sprague-Dawley rats [4]; group that had received atipemazole alone (0.8 ng/day) for 5 days, day 6, tail flick and paw pressure tests", "result": "approximately 5 μg"},
      {"measurement": "time course of analgesic response on day 5", "setting": "Sprague-Dawley rats [4]; morphine 15 μg alone at conclusion of chronic treatment", "result": "drastically reduced"},
      {"measurement": "analgesic response to morphine on day 1", "setting": "Sprague-Dawley rats [4]; morphine 15 μg intrathecal, 30 minutes after administration", "result": "maximal level"},
      {"measurement": "effect of morphine at 60 minutes post injection, both tests", "setting": "Sprague-Dawley rats [4]; morphine 15 μg/day alone", "result": "very much reduced"},
      {"measurement": "cumulative morphine dose-response curve on day 6 after chronic morphine treatment", "setting": "Sprague-Dawley rats [4]; morphine 15 μg/day for 5 days", "result": "rightward shift"},
      {"measurement": "magnitude of morphine effect with daily drug administration", "setting": "Sprague-Dawley rats [4]; morphine 15 μg/day intrathecal for 5 days, 30 minutes after administration", "result": "progressively declined towards baseline value by day 5"},
      {"measurement": "decline of the analgesic effect of morphine observed after the first injection, at the end of the 240 minute test period", "setting": "Sprague-Dawley rats [2]; 3 successive doses of morphine 15 μg intrathecal at 90 minute intervals", "result": "~80", "unit": "%"},
      {"measurement": "increase in morphine ED50, paw pressure test", "setting": "Sprague-Dawley rats [2]; [13]", "result": 4, "unit": "fold"},
      {"measurement": "increase in morphine ED50, tail flick test", "setting": "Sprague-Dawley rats [2]; [13]", "result": "~5", "unit": "fold"},
      {"measurement": "cumulative morphine dose-response curve 24 hours after repeated morphine injections", "setting": "Sprague-Dawley rats [2]; morphine 15 μg x 3 at 90 minute intervals, relative to saline treatment", "result": "shifted to the right; also recorded: parallel right shift"},
      {"measurement": "ED50 value of morphine, paw pressure test", "setting": "Sprague-Dawley rats [2]; [14]", "result": "~7 µg and ~8 µg"},
      {"measurement": "ED50 value of morphine, tail flick test", "setting": "Sprague-Dawley rats [2]; [14]", "result": "~5", "unit": "µg"}
    ]},
    {"smiles": "C=CCN1CC[C@]23c4c5ccc(O)c4O[C@H]2C(=O)CC[C@@]3(O)[C@H]1C5", "note": "[naloxone]", "values": [
      {"measurement": "effect on alpha-2 receptor agonist analgesia", "setting": "mouse", "result": "does not affect"}
    ]},
    {"smiles": "Cc1ccc(N(CC2=NCCN2)c2cccc(O)c2)cc1", "note": "[phentolamine]", "values": [
      {"measurement": "development of tolerance to morphine analgesia", "setting": "mice", "result": "suppress the development of tolerance"}
    ]},
    {"smiles": "COc1cc2nc(N3CCN(C(=O)c4ccco4)CC3)nc(N)c2cc1OC", "note": "[prazoin]", "values": [
      {"measurement": "development of tolerance to morphine analgesia", "setting": "mice", "result": "suppress the development of tolerance"}
    ]},
    {"smiles": "CC(C)NCC(O)COc1cccc2ccccc12", "note": "(centres unmarked) [propranolol]", "values": [
      {"measurement": "development of tolerance to morphine analgesia", "setting": "mice", "result": "suppress the development of tolerance"}
    ]}
  ]
}
